Test results reported in patent US5183805A (Board of Regents, The University of Texas System, priority 1990, dated 1993).
Like-named read-outs stand apart in the source and are kept apart here. Positions of bridges follow the written chain, without caps; N, C: chain ends. Residues, ends and D or L forms follow the SMILES beside them. No end group written: not given here.

Columns and labels:
[1] = biological target: T1, EGF receptor (Homo sapiens, UniProt P00533); assay: Summary statements on biological activity (receptor studies, parameters examined) compared with other EGF peptide analogs
Excerpt: Relative biological activity of a peptide also may reflect the activity of the peptide in immune complex kinase assays, the ability to inhibit ornithine decarboxylase activity, mitogenic stimulation activity, ability to induce EGF-r phosphorylation in vivo and action in the phosphorylation of calpactin.

[2] = biological target: T2, EGF-R (Homo sapiens, UniProt P00533); assay: Kinetics of EGF-R kinase stimulation: peptide added to A431 cells, then immune complex kinase assay; assay type: cell-based; details: 20 ng/ml peptide, 37° C, very preliminary
T2 construct: endogenous in cells; host or cells: A431 epidermoid carcinoma cells (ATCC CRL 1555)
Protocol: FIG. 1 - Kinetics of EGF-R stimulation by synthetic peptides. To semi-confluent A431 cells (grown in 0.1% FCS), indicated concentrations of cyclic (peptide A) or linear (peptide D) peptide with tyr at position 6 was added at a concentration of 20 ng/ml for 10 min at 37° C. Cells were harvested, lysed, EFG-R was immunoprecipitated, immune complex kinase assays were performed, and proteins resolved as described in FIG. 1. […] This figure compares preliminary kinetics of kinase stimulation after the addition of the active cyclic and less-active linear peptide to A431 cells. Immune complex kinase of EGF-r after addition of various biological response modifiers to A431 cells is shown.

[3] = biological target: T1, EGF receptor; assay: Inhibition of 125I-EGF binding to A431 cells (EGF receptor competition assay); set-up: endogenous in cells; host or cells: A431 epidermoid carcinoma cells (ATCC CRL 1555)
Protocol: FIG. 3--Inhibition of ^125 I-EGF binding by synthetic peptides. 1×10^5 A431 cells were plated in each well of a 24 well tissue culture plate, and allowed to grow for 48 o hours. Cells were rinsed 3 times in cold serum-free DMEM containing 0.1% BSA and 50 mM HEPES, pH 7.4, then incubated in this medium for 45 min. at 4° C. Subsequently, varying concentrations of peptide (or unlabeled EFG) was added, followed by 20,000 cpm ^125 I-EGF. After 2 hours incubation, medium is removed and cells are washed two times in PBS, then solubilized in 1 ml IN NaOH at 24° C. for 18 hours. Radioactivity in the solution is determined in a gamma counter. Peptide A--cyclic peptide with tyr at position 6; Peptide B--linear peptide with tyr at position 6; Peptide C --cyclic peptide with phe at position 6.
For this assay, cells were grown overnight in serum free media in microtiter wells, washed several times in PBS, then incubated for 2h with various concentrations of peptides. ^125 I-EGF was then added for 3o min, cells were extensively washed, and radioactivity was estimated in a gamma counter.

[4] = tested on: A431 cells; assay: Mitogenic stimulation / growth of A431 cells; assay type: cell-based; details: for effect on A431 cell growth: serum-free medium, counted after 72 hours
Protocol: FlG. […] Mitogenic Stimulation of A431 cells. […] The peptide analog 38A is the cyclic form of the peptide with native tyrosine. Cells were harvested 72 hours later and counted with the aid of a hemacytometer.
A431 cells are a malignant cell line in which the study of EGF-r has been well characterized. […] Over the range of peptide analog concentrations tested, no inhibition of A431 cell growth was observed.

[5] = tested on: ornithine decarboxylase (ODC) induction by EGF; assay: Effect of peptide pretreatment on EGF-stimulated ODC induction in ME-180 cells; assay type: cell-based; details: 100-fold excess, 100 ng/ml peptide 30 min, then 10 ng/ml EGF 3 hours
Protocol: FIG. 4--Effect of synthetic peptide pretreatment on EGF-stimulated ODC induction in ME-180 cells. […] Cells are pelleted, sonicated in a buffer containing 25 mM NaPO4, 1mM DTT, 40 μM PLP, 0.1 mM EDTA, and centrifuged for 30 min. at 15,000 rpm at 4° C. Ornithine decarboxylase activity was determined on the supernatant by monitoring ^14 CO2 released from 0.5 μCi of I (^14 C) ornithine in a total ornithine concentration of 0.5 mM and a total volume of 0.2ml. P1--linear peptide and P2--cyclic peptide with phe at position 6; P3--linear peptide and P4--cyclic peptide with tyr at position 6.

[6] = biological target: T1, EGF receptor; assay: Immune complex kinase assay of EGF-R immunoprecipitated from A431 cells, peptides added to the complexes, autophosphorylation measured; assay type: biochemical; set-up: endogenous in cells; host or cells: A431 epidermoid carcinoma cells (ATCC CRL 1555)
Protocol: A431 cells at approximately 70-80% confluency were lysed in a detergent-containing (RIPA) buffer, and clarified by centrifuging at 10,000×g for 10 min. […] Immune complexes were harvested after 15 min. incubation with 50 μl Pansorbin. For kinase assays, complexes were washed in RIPA buffer, then resuspended in 50 μl 1 0.1% Triton X-100 in 20 mM HEPES, pH 7.0, with the addition of 100 μm sodium vanadate. After 10 min. incubation, kinase reaction was initiated by addition of 50 μl of 20 mM HEPES containing 10 μCi γ^-32p ATP. Reaction was allowed to proceed at 25° C. for 10 min., and terminated by addition of RIPA buffer.
This assay is very sensitive, and kinase activation is among the earliest events in mitogenesis.
Immune complexes were harvested with formalin fixed staphylococcus aureus Cowan Strain (Calbiochem). These complexes were then assayed for kinase activity in an immune complex kinase assay.
Selected peptides from Example 3 were employed in the study.

[7] = Heath and Merrifield (1986); cited from earlier work

T1 sequence (P00533 25-1210): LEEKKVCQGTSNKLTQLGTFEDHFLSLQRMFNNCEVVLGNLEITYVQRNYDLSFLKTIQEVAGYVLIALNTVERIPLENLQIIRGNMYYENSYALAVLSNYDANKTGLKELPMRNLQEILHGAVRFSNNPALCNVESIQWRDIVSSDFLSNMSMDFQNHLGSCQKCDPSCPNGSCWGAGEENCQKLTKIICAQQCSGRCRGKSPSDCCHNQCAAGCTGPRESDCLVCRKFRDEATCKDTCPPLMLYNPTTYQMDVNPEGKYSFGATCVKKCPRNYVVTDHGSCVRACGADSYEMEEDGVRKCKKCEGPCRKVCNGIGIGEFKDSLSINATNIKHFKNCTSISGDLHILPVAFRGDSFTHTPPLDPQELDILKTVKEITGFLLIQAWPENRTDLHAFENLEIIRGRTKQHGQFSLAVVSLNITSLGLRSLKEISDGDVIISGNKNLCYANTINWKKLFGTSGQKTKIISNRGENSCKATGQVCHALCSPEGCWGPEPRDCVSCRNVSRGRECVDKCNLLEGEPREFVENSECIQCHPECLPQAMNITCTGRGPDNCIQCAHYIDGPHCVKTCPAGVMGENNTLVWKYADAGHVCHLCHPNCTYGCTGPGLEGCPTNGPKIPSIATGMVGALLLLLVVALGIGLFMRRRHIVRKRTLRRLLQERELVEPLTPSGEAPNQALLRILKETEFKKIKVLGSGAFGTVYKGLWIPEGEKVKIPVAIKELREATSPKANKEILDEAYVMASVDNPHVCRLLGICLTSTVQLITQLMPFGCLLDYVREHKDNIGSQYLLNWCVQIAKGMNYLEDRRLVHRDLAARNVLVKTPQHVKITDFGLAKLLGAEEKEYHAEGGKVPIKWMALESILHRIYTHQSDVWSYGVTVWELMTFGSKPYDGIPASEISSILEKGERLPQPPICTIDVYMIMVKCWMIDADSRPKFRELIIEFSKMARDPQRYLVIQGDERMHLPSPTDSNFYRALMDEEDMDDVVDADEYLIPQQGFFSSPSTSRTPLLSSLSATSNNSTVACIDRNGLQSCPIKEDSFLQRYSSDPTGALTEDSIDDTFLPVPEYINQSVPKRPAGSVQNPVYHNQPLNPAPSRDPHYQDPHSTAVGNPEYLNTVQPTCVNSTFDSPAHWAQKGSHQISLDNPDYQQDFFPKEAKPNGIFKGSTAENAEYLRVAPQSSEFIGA
T2 sequence (P00533 25-1210): as above

CC[C@H](C)[C@@H]1NC(=O)[C@H](Cc2ccc(O)cc2)NC(=O)CNC(=O)[C@H](C(C)C)NC(=O)[C@H](C(C)C)NC(=O)[C@@H](NC(=O)[C@H](CC(N)=O)NC(C)=O)CSSC[C@@H](C(=O)N[C@@H](CCC(N)=O)C(=O)N[C@@H](Cc2ccc(O)cc2)C(=O)N[C@@H](CCCNC(=N)N)C(=O)N[C@@H](CC(=O)O)C(=O)N[C@@H](CC(C)C)C(=O)N[C@@H](CCCCN)C(N)=O)NC(=O)[C@H](CCCNC(=N)N)NC(=O)[C@H](CCC(=O)O)NC(=O)CNC1=O [Peptide A] (Ac-NCVVGYIGERCQYRDLK-NH2; disulfide 2-11)
biological activity relative to any other EGF peptide analog so far synthesized ([1]; listed as cyclic form of this unsubstituted peptide): 100 fold | biological activity relative to any other EGF peptide analog so far synthesized ([1]; listed as cyclic peptide comprising the end of the B loop and the C loop): 100 fold | biological activity relative to any other EGF peptide analog so far synthesized ([1]; listed as natural tyrosine form of the cyclic peptide analog): > 100 fold | time of maximum stimulation of kinase activity [2]: 15 min | competition for EGF receptor binding relative to any previously reported peptide [3]: 100 fold | concentration for 50% inhibition of 125I-EGF binding relative to that for unlabeled EGF [3]: 10 fold | effect on A431 cell growth ([4]; 0.1 ng/ml, listed as 38A): stimulated cell growth | effect on A431 cell growth ([4]; 0.1 ng/ml, listed as most biologically active cyclic peptide analog): stimulated these cells | effect of higher concentrations of EGF on A431 growth in the presence of peptide ([4]; 10 ng/ml peptide analog mixed with higher concentrations of EGF): no longer growth-inhibited | effect on A431 cell growth ([4]; 10 ng/ml, listed as 38A): stimulated cell growth | effect on A431 cell growth ([4]; 10 ng/ml, listed as most biologically active cyclic peptide analog): stimulated these cells | effect on A431 cell growth of peptide mixed with EGF ([4]; peptide and EGF mixed, low concentrations): stimulation of cell growth | inhibition of A431 cell growth over the range of concentrations tested ([4]; whole concentration range tested): no inhibition | inhibition of ODC induction of EGF [5]: 50%

CC[C@H](C)[C@H](NC(=O)[C@H](Cc1ccc(O)cc1)NC(=O)CNC(=O)[C@@H](NC(=O)[C@@H](NC(=O)[C@H](CS)NC(=O)[C@H](CC(N)=O)NC(C)=O)C(C)C)C(C)C)C(=O)NCC(=O)N[C@@H](CCC(=O)O)C(=O)N[C@@H](CCCNC(=N)N)C(=O)N[C@@H](CS)C(=O)N[C@@H](CCC(N)=O)C(=O)N[C@@H](Cc1ccc(O)cc1)C(=O)N[C@@H](CCCNC(=N)N)C(=O)N[C@@H](CC(=O)O)C(=O)N[C@@H](CC(C)C)C(=O)N[C@@H](CCCCN)C(N)=O [Peptide B] (Ac-NCVVGYIGERCQYRDLK-NH2)
biological activity relative to any other EGF peptide analog so far synthesized [1]: 10 fold | competition for 125I-EGF binding (in words) [3]: marginal competition

CC[C@H](C)[C@@H]1NC(=O)[C@H](Cc2ccccc2)NC(=O)CNC(=O)[C@H](C(C)C)NC(=O)[C@H](C(C)C)NC(=O)[C@@H](NC(=O)[C@H](CC(N)=O)NC(C)=O)CSSC[C@@H](C(=O)N[C@@H](CCC(N)=O)C(=O)N[C@@H](Cc2ccc(O)cc2)C(=O)N[C@@H](CCCNC(=N)N)C(=O)N[C@@H](CC(=O)O)C(=O)N[C@@H](CC(C)C)C(=O)N[C@@H](CCCCN)C(N)=O)NC(=O)[C@H](CCCNC(=N)N)NC(=O)[C@H](CCC(=O)O)NC(=O)CNC1=O [Peptide C] (Ac-NCVVGFIGERCQYRDLK-NH2; disulfide 2-11)
competition for 125I-EGF binding (in words) [3]: marginal competition | stimulation of kinase activity ([6]; 30 ng/ml peptide): approximately 2 fold

CC[C@H](C)[C@H](NC(=O)[C@H](Cc1ccccc1)NC(=O)CNC(=O)[C@@H](NC(=O)[C@@H](NC(=O)[C@H](CS)NC(=O)[C@H](CC(N)=O)NC(C)=O)C(C)C)C(C)C)C(=O)NCC(=O)N[C@@H](CCC(=O)O)C(=O)N[C@@H](CCCNC(=N)N)C(=O)N[C@@H](CS)C(=O)N[C@@H](CCC(N)=O)C(=O)N[C@@H](Cc1ccc(O)cc1)C(=O)N[C@@H](CCCNC(=N)N)C(=O)N[C@@H](CC(=O)O)C(=O)N[C@@H](CC(C)C)C(=O)N[C@@H](CCCCN)C(N)=O [Peptide P1] (Ac-NCVVGFIGERCQYRDLK-NH2)
stimulation of EGF-receptor kinase activity (in words) [6]: no activity

epidermal growth factor (NSDSECPLSHDGYCLHDGVCMYIEALDKYACNCVVGYIGERCQYRDLKWWELR; Epidermal growth factor; UniProt P01133 971-1023, looked up) [EGF, single-chain polypeptide, 53 amino acid residues, three internal disulfide bonds]
effect on A431 cell growth ([4]; 0.1 ng/ml): stimulated A431 cell growth | effect on A431 cell growth ([4]; 0.1 ng/ml, listed as Native EGF): stimulated growth | effect on A431 cell growth ([4]; 10 ng/ml): inhibited | effect on A431 cell growth ([4]; 10 ng/ml, listed as Native EGF): inhibited cell growth

isolated "B" loop: synthetic peptide of the isolated B loop of EGF (residues 20-31), Heath and Merrifield (CMYIEALDKYAC; ends and bridges not checked; cysteine pairing not given here; UniProt P01133 990-1001, looked up, fragment)
activity relative to EGF [7]: 0.001%
